In PMC3621862, “Re-Directing an Alkylating Agent to Mitochondria Alters Drug Target and Cell Death Mechanism” (PLoS ONE, 2013):
“Also recorded” adds a separate entry of the source. Like-named read-outs stand apart in the source and are kept apart here. Square brackets hold non-standard residues; d marks the D form. Peptide text beside a SMILES is read from it. * marks the point of attachment. ξ: configuration not given here. Chlorambucil = O=C(CCCc1ccc(N(CCCl)CCCl)cc1)*; ξCha = NC(CC1CCCCC1)C(=O)O

Tests used:
[1] = tested on: caspase-3 and PARP-1 cleavage in HeLa cells; format: cell-based
[2] = tested on: HeLa cells; settings: 18 hours treatment
[3] = Biodistribution in K562 xenograft mice; format: in vivo, mouse; settings: K562 xenograft NOD/SCID mice; mt-Cbl 15 mg/kg, Cbl 100 mg/kg i.p. daily for 10 days
Description: K562 cells (3×10^6) were injected subcutaneously into the flanks of ten NOD/SCID mice (Ontario Cancer Institute, Toronto, ON). Palpable tumours were formed 7 days after injection and mice were then treated daily for 10 days with Cbl (100 mg/kg) or mt-Cbl (15 mg/kg) by intraperitoneal injection. Mice were sacrificed 17 days after injection of cells and organs were excised for analysis of Cbl and mt-Cbl biodistribution profiles. The liver, kidneys, spleen, heart, lungs and brain were removed from mice following sacrifice and immediately frozen in dry ice until analysis. Tissues were homogenized in four volumes of ice-cold acetonitrile and centrifuged at 10,000×g for 10 min, 4°C. The resulting supernatant was analyzed via HPLC-MS/MS to determine drug concentrations in each tissue.

[4] = Rate of hydrolysis in saline or plasma (HPLC-MS/MS); format: in vitro ADME, mouse; settings: 37°C
Description: Stability of mt-Cbl and MPP in mouse plasma: Thiazole orange-labelled conjugates were incubated in mouse plasma for three weeks at room temperature. The stability of these compounds was then assessed via reverse-phase HPLC. A single peak with the identical retention time to a fresh conjugate control was considered to be a positive result for stability in mouse plasma. Rate of mt-Cbl and Cbl hydrolysis in saline or plasma: Cbl and mt-Cbl were incubated in saline or plasma for 0 h, 0.5 h, 1 h, 1.5 h, 2 h, 2.5 h and 3 h at 37°C. Following this, plasma proteins were precipitated in four volumes of ice-cold acetonitrile and centrifuged at 10,000×g for 10 min, 4°C. The resulting supernatant was analyzed via HPLC-MS/MS to determine active drug concentrations in each sample.

[5] = Maximal tolerated dose; settings: mouse, in vivo, ip; NOD/SCID mice, intraperitoneal
Description: Non-obese diabetic/severe combined immunodeficiency (NOD/SCID) mice were treated intraperitoneally with increasing concentrations of Cbl (10–500 mg/kg) or mt-Cbl (10–50 mg/kg). Animals were monitored daily for weight loss, lethargy and other signs of physical discomfort. […] All animal studies were carried out according to the regulations of the Canadian Council on Animal Care and with the approval of the Ontario Cancer Institute Animal Ethics Review board or the Faculty of Medicine Animal Care Committee at the University of Toronto.

[6] = Pharmacokinetic study, plasma levels by HPLC-MS/MS; format: in vivo; settings: mouse, ip, CD1 mice, single dose 10 mg/kg intraperitoneal; for AUC: unit inferred
Description: Animal handling and dose administration was performed by Kard Scientific (Beverly, MA). Six CD1 mice were treated with a single dose of 10 mg/kg mt-Cbl or Cbl via intraperitoneal injection. Blood samples were collected at 15 min, 30 min, 1 h, 2 h, 4 h and 8 h in heparin-treated tubes. Samples were kept on ice until centrifugation at 1,500 rpm for 20 min, 4°C and the resulting plasma supernatants were transferred to fresh tubes. Plasma proteins were precipitated with four volumes of ice-cold acetonitrile and spun at 10,000×g for 10 min, 4°C. The resulting supernatant was analyzed via HPLC-MS/MS to determine plasma concentrations of Cbl and mt-Cbl.

[7] = Stability in mouse plasma over three weeks (HPLC); settings: three-week incubation, HPLC single peak
[8] = tested on: mouse livers; test: Liver toxicity: H&E histology and plasma liver enzymes; format: in vivo; settings: mt-Cbl 15 mg/kg, Cbl 3.7 mg/kg every other day for 21 days
Description: Mice were treated every other day with equimolar doses of either mt-Cbl (15 mg/kg), Cbl (3.7 mg/kg) or vehicle control for 21 days by Kard Scientific (Beverly, MA). Following sacrifice, mouse livers and K562 xenograft tumors were fixed in 10% formalin overnight and then transferred to 70% ethanol. Samples were then paraffin-embedded, sectioned and stained in a standard manner by the Pathology Research Program Laboratory at Toronto General Hospital. Biotin-conjugated secondary antibodies, avidin horseradish peroxidase and the chromogenic diaminobenzidine tetrahydrochloride (DAB) were used for detection. Slides were imaged at 20× and then analyzed using Aperio ImageScope Software (Aperio Technologies, Vista, California). Positive pixels were identified and counted using the Positive Pixel Count V9 algorithm in this software. Quantification was performed on ten representative squares of 2500×2500 μm each and an average was calculated. % Positive Pixels was determined by dividing the positive pixel count by the total number of pixels analyzed. A standard hematoxylin and eosin (H&E) staining was performed on liver sections and these were reviewed for hepatotoxicity and injury by a pathologist with liver expertise. In addition, liver toxicity was evaluated though determination of levels of specific liver enzymes. Mice were treated every other day with equimolar doses of either mt-Cbl (15 mg/kg), Cbl (3.7 mg/kg) or vehicle control for 21 days. Three days after the final dose, mouse plasma samples were tested for levels of bilirubin, alkaline phosphatase and aspartate transaminase in a standard manner.

[9] = tested on: HeLa cells; test: Mitochondrial ToxGlo assay, protease activity and cellular ATP levels; format: cell-based; settings: 90 minutes, various doses (over EC50)
Description: (§1) HeLa cells were seeded at 7500 cells/well a day prior to experiments in white flat clear-bottom 96-well plates (Greiner Bio one). Cells were incubated with Cbl, Cbl conjugates, staurosporin or digitonin as appropriate at indicated concentrations. Cellular ATP levels and protease activity were measured after a 90 minute incubation using the Mitochondrial ToxGlo assay (Promega) as per manufacturer's instructions. To assess caspase 3/7 activity, cells were incubated with compound for 6 hours prior to measurement with the Caspase-Glo® 3/7 Assay (Promega) as per manufacturer's instructions.

[10] = Alkylation activity with 4-(4-nitrobenzyl)pyridine; settings: absorbance of 4-(4-nitrobenzyl)pyridine
From the text: Supplementary file pone.0060253.s005.pdf: Figure S5 Characterization of Cbl-TPP. (a) Chemical structure of Cbl-TPP . Cbl was conjugated to a triphenylphosphonium ion to generate Cbl-TPP. (b) Alkylation activity of Cbl, mt-Cbl and Cbl-TPP.

[11] = tested on: mtDNA of HL-60 cells; test: Cbl-conjugate labeling of mtDNA (dot blot with TPP antibody); format: cell-based; settings: 10 uM, 30 min
Description: HL-60 cells (25 million cells) were incubated with Cbl-TPP (10 uM) for 30 min, after which the cells were collected. The cells were then washed with ice-cold PBS, and their mitochondria were isolated using Mitochondrial Isolation Kit for Mammalian Cells (Thermo Scientific). The mtDNA was extracted from the mitochondrial pellets using AllPrep DNA/RNA Mini Kit (QIAGEN). DNA concentration was measured using a NanoDrop 1000 Spectrophotometer (Thermo Scientific) and then normalized (10 ng/μl). After this, a nitrocellulose membrane was spotted with untreated and treated DNA and UV crosslinked using UV Stratalinker 1800 (Stratagene) The membrane was blocked with 5% BSA-TBST for 1 hr at room temperature and then probed with TPP antibody (1∶5000) at 4°C overnight. Then the membrane was washed and visualized with chemiluminescence detection (GE Amersham).

[12] = tested on: 143B cells and 143B ρ° cells; test: CCK-8 cell viability in 143B parental and ρ° cells; format: cell-based; settings: overnight incubation, various doses
[13] = tested on: mitochondrial proteins of HL-60 cells; test: Cbl-conjugate labeling of mitochondrial proteins (immunoblot); format: cell-based; settings: HL60 cells, 30 min; biotin-labeled mt-Cbl 1.5 μM or Cbl-TPP 10 uM
Description: HL-60 cells (25 million cells) were incubated with biotin-labeled mt-Cbl peptide (Biotin-mt-Cbl) (0, 1.5 μM) or Cbl-TPP (10 uM) for 30 min, after which the cells were collected. The cells were then washed with ice-cold PBS, and their mitochondria were isolated using Mitochondrial Isolation Kit for Mammalian Cells (Thermo Scientific). The mitochondrial pellets were then lysed using RIPA buffer plus protease inhibitors for 30 min. at 4°C and the total protein concentration determined using BCA assay. Lysates (10 μg of total protein) were then loaded onto 7% gels and run at 30 V for 30 min. and 150 V for 1 hour using a tris-tricine buffer system (Cathode buffer: 0.1 M Tris, 0.1 M Tricine, and 0.1% SDS, Anode buffer: 0.2 M Tris-Cl, pH8.9). Immunoblotting was continued as described previously using biotin antibody to detect the biotin tag on mt-Cbl or TPP antibody to detect Cbl-TPP.

[14] = tested on: caspase 3/7 activity in HeLa cells; test: Caspase-Glo 3/7 activity assay; format: cell-based; settings: 6 hours
Description: as §1

[15] = tested on: leukemia; parameters: method as in PMID 8241831; settings: cited from earlier work
[16] = in water; cited from earlier work

For `CC(C)[C@H](NC(=O)c1ccc2ccccc2n1)C(=O)N[C@@H](CC(=O)O)C(=O)COc1c(F)cccc1F` [Q-VD-Oph], the “Cleavage of caspase-3 and PARP-1” value [1] was “suppressed the effects of Cbl treatment”.

In the case of `N=C(N)NCCC[C@@H](NC(=O)C(CC1CCCCC1)NC(=O)[C@@H](CCCNC(=N)N)NC(=O)C(CC1CCCCC1)NC(=O)[C@@H](CCCNC(=N)N)NC(=O)C(CC1CCCCC1)NC(=O)CCCc1ccc(N(CCCl)CCCl)cc1)C(N)=O` (stereo partly drawn) [mt-Cbl] (Chlorambucil-[ξCha][dR][ξCha][dR][ξCha][dR]-NH2), the LD50 ([2]; HeLa after siEXOG transfection) is reported as 4.7 µM, the LD50 ([2]; HeLa after siNT (untargeted siRNA control) transfection) is reported as 3.5 µM and the Accumulation in liver [3] is reported as “site of greatest accumulation”. For the same compound, the “Accumulation in tumors compared to Cbl” value [3] was ~250 fold, the Levels in kidneys [3] was “very low levels” and the “Half-life (hydrolysis)” value ([4]; mouse plasma) was 1 h. For the same compound, the half-life ([4]; mouse, plasma, saline) was 1 h, the MTD [5] was 50 mg/kg and the Cmax ([6]; in vivo) was 800 ng/mL. For the same compound, the half-life ([6]; in vivo) was 6 h, the AUC ([6]; in vivo) was 3560 ng·h/mL and the “Stability in mouse plasma” value [7] was “stable in mouse plasma”. The “Liver histology (H&E)” value [8] was “histologically normal with no features of injury or toxicity” and the “Plasma levels of bilirubin, alkaline phosphatase and aspartate aminotransferase” value [8] was “No significant change”.

With `CC(=O)NC(CC1CCCCC1)C(=O)N[C@H](CCCNC(=N)N)C(=O)NC(CC1CCCCC1)C(=O)N[C@H](CCCNC(=N)N)C(=O)NC(CC1CCCCC1)C(=O)N[C@H](CCCNC(=N)N)C(N)=O` (stereo partly drawn) [MPP] (Ac-[ξCha][dR][ξCha][dR][ξCha][dR]-NH2; N-terminus and C-terminus assumed) the “Stability in mouse plasma” value was “stable”.

For `O=C(CCCc1ccc(N(CCCl)CCCl)cc1)NCCC[P+](c1ccccc1)(c1ccccc1)c1ccccc1` [Cbl-TPP], the “Cellular ATP level” value [9] was “drastic drop in ATP cellular levels”, the Protease activity [9] was “significant increase in protease activity” and the “Alkylation activity (rate of alkylation)” value [10] was “retained alkylation activity very similar to that observed with the MPP conjugated form of mt-Cbl; also recorded: reduces its alkylation activity”. For the same compound, the “Alkylation of mtDNA” value [11] was “Alkylation of both mtDNA and proteins”, the “Toxicity in 143B parental versus mtDNA-free ρ° derivative” value [12] was “overlapping toxicity profiles” and the “Alkylation of mitochondrial proteins” value [13] was “Alkylation of both mtDNA and proteins”.

For `O=C(O)CCCc1ccc(N(CCCl)CCCl)cc1` [Cbl, chlorambucil, reference compound], the “Cleavage of caspase-3 and PARP-1” value ([1]; HeLa, Cbl 750 μM, 8 hours, Q-VD-Oph 20 μM pretreatment) was “induced the cleavage and activation of caspase-3”, the Accumulation in liver [3] was “site of greatest accumulation” and the Levels in kidneys [3] was “very low levels”. The half-life ([4]; mouse plasma) was 1 h, the half-life ([4]; mouse, saline) was 1 h and the MTD [5] was 400 mg/kg. The Caspase-3/7 activity [14] was “increase in caspase-3/7 activity in a dose-dependent manner”, the Cmax [6] was 200 ng/mL and the half-life [6] was 0.75 h. The AUC [6] was 147 ng·h/mL, the “Liver histology (H&E)” value [8] was “histologically normal with no features of injury or toxicity” and the “Plasma levels of bilirubin, alkaline phosphatase and aspartate aminotransferase” value [8] was “No significant change”. The “Initial response rate in patients” value [15] was 40–60% and the half-life [16] was 0.5 h.
